Assay results from article PMC12305494, “Discovery of PXR Antagonist MI891 and PXR Degrader MI1013 and Their Roles in Hepatic Gene Regulation” (Journal of Medicinal Chemistry, 2025).
Substitutions are numbered along the chain they refer to.

Key:
[1] = biological target: T1, wild-type PXR LBD (Homo sapiens, UniProt O75469); test: Mammalian two-hybrid assay, wt-PXR LBD with SRC-1-VP16 in HepG2; type: cell-based; conditions: MI891 at 10 μM
T1 construct: HepG2 cells were cotransfected with a GAL4-hPXR LBD construct and pSCR1-VP16 construct; expressed in transfected cells; host or cells: HepG2
T1 sequence (O75469 146-433 limits assumed): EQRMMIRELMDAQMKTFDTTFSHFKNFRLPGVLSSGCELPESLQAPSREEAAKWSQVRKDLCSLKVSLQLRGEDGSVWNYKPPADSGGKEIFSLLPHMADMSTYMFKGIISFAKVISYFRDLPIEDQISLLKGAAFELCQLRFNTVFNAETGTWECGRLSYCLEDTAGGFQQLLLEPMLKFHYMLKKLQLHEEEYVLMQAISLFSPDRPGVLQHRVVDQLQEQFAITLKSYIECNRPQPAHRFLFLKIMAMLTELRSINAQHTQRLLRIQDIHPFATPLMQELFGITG
Text: (§1) Additionally, the GAL4-PXR-LBD triple mutants (S247W/C284W/S208W) construct and wild-type GAL4-wtPXR vector were used for PXR LBD mutant functional two-hybrid assay as we described before. In the mammalian two-hybrid assay, HepG2 cells were cotransfected with a GAL4-hPXR LBD construct and pSCR1-VP16 construct. Renilla luciferase vector was used for the normalization of firefly luciferase activity to Renilla luciferase activity.

[2] = system: HepaRG cells; test: RT-qPCR gene expression in differentiated HepaRG cells; type: cell-based, human; conditions: 48 h
Experimental: HepaRG cells (Sigma-Aldrich/Merck) were cultivated and differentiated on 12-well plates. Seeded at 26,600 cells/cm^2, they were maintained in William’s medium with supplements. After 14 days, differentiation into hepatocyte-like cells was induced using 1.5% DMSO for another 14 days.
RT-qPCR was utilized to investigate gene expression in HepaRG and PHH. Total RNA was extracted from these cells using the phenol–chloroform method. The concentration of the isolated RNA was then measured using a Nanodrop 1000 spectro-photometer (Thermo Fisher Scientific).
Following RNA isolation, reverse transcription was performed to convert RNA into complementary DNA (cDNA). This step was carried out using the High-capacity cDNA reverse transcription kit (Cat. No. 4374966, ThermoFisher Scientific). The resulting cDNA served as the template for subsequent qPCR reactions.
The qPCR reactions were conducted on the QuantStudio 6 Flex Real-Time PCR System (ThermoFisher Scientific, Waltham, Mas-sachusetts). For these reactions, TaqMan Universal master mix II (Cat. No. 4440047, ThermoFisher Scientific) and TaqMan assays (FAM) utilized in this study are detailed in the Supporting Information. To quantify gene expression, the cycle threshold (Ct) values of the target genes were normalized to the Ct values of reference genes HPRT1 or GAPDH (HepaRG) or TBP (PHH). The normalized values were then expressed as fold changes (2−ΔΔCt) relative to the DMSO control at the specified time points, with the control set as 1.

[3] = biological target: T2, triple mutant (S208W/S247W/C284W) PXR LBD (Homo sapiens, UniProt O75469, C284W/S208W/S247W); test: Mammalian two-hybrid assay, obstructed triple mutant PXR LBD with SRC-1-VP16 in HepG2; type: cell-based
T2 construct: the GAL4-PXR-LBD triple mutants (S247W/C284W/S208W) construct; expressed in transfected cells; host or cells: HepG2
T2 sequence (O75469 146-433 S208W/S247W/C284W limits assumed): T1 sequence (O75469 146-433 limits assumed) with S63W, S102W, C139W
Text: as §1

[4] = system: ERα/β; test: ERα/β agonist reporter assay; type: cell-based; conditions: 10 µM MI891
Experimental: For the farnesoid X receptor (FXR) luciferase gene reporter assay, the full-length expression vector was paired with pFXRE-luc luciferase construct. The p1A1-luc construct was used in the aryl hydrocarbon receptor (AhR) assays with pRL-TK for normalization. Gal4-LXR-α/β, and Gal4-PPAR-γ constructs were used with the pGAL4 UAS-luc construct. For the VDR assay, expression vector pSG5-hVDR together with pVDRE-luc constructs was used. Firefly and Renilla luciferase activities were analyzed using a Dual reporter assay (Promega). For the nuclear receptor assays, prototype ligands were used at the following concentrations: Calcitriol for VDR (100 nM), GW3965 for LXRα and LXRβ (10 μM), 6-OCA for FXR (1 μM), fenofibrate for PPARα (10 μM), estradiol for ERα and β (10 μM), rosiglitazone for PPARγ (10 μM), 3-MC for AhR (5 μM), and TCPOBOP for mCAR (10 μM). Detailed descriptions and protocols are detailed in our recent publication. , […]
hydrophobic interactions. (F) Superimposed diagram of PXR bound with agonist (SJPYT-328) and antagonists (MI891 and SJPYT-331) to differentiate the agonist and antagonist interactions with helix 12 (H12). The interaction of the agonist with PXR residue (L428) is circled. (G) Extended nuclear receptor selectivity profile. […]

[5] = system: COS-1 cells; test: CellTiter-Glo cytotoxicity assay, COS-1; type: cell-based, monkey; conditions: 24 h
Experimental: (§2) For the cytotoxicity assays involving HepG2, COS-1, and HK-2 cell lines, serial dilutions of MI891 or MI1013 were added to white 96-well tissue culture-treated plates containing these cell lines. After incubating the plates for 24 h at 37 °C, cytotoxicity was assessed using the CellTiter-Glo luminescent cell viability assay (Promega). The luminescence signal was measured with a Synergy2 plate reader (BioTek, Winooski, Vermont, USA) and presented as a relative change compared to the vehicle (DMSO, 0.1%) control, which was set at 100%.

[6] = system: HK-2 cells; test: CellTiter-Glo cytotoxicity assay, HK-2; type: cell-based, human; conditions: 24 h
Experimental: as §2

[7] = system: HepG2 cells; test: CellTiter-Glo cytotoxicity assay, HepG2; type: cell-based, human; conditions: 24 h
Experimental: as §2

Molecule | effect on wt-PXR-LBD/SRC1-VP16 two-hybrid [1] | SULT1E1, SULT1B1, CYP7B1 and NR0B2 (SHP) gene expression ([2]; MI891 5 μM, MI1013 2 μM) | CYP2B6 mRNA expression ([2]; at 1 μM, no significant activation at higher concentrations) | CYP3A4 mRNA expression ([2]; alone or with rifampicin (5 μM), concentration-dependent) | activation of obstructed mutated PXR LBD two-hybrid [3] | agonistic effect on ERα/β [4] | effect on viability ([5]; COS-1, up to 30 μM) | effect on viability ([6]; HK-2, up to 30 μM) | effect on viability ([7]; HepG2, up to 30 μM) | CYP3A4 gene expression ([2]; MI891 5 μM, SPA70 5 μM, MI1013 2 μM) | cytotoxicity/viability ([5]; COS-1, up to a concentration of 100 μM) | cytotoxicity/viability ([6]; HK-2, up to a concentration of 100 μM) | cytotoxicity/viability ([7]; HepG2, up to a concentration of 100 μM)
NC(=O)c1cc(Cn2cc(-c3c(-c4ccc(Cl)cc4)nc4c(F)cc(F)cn34)nn2)ccc1Cl [Compound 11, 2-Chloro-5-((4-(2-(4-chlorophenyl)-6,8-difluoroimidazo[1,2-a]pyridin-3-yl)-1H-1,2,3-triazol-1-yl)methyl)-benzamide] | disrupted the wt-PXR-LBD/SRC1-VP16 interaction | significantly downregulated | slightly induced | suppressed both rifampicin-induced and basal (constitutive) CYP3A4 mRNA expression | Neither MI891 nor SPA70 activated the obstructed mutated PXR LBD | no agonistic effects | no effects on viability | no effects on viability | no effects on viability |  |  |  | 
N-(4-((1-(2,5-dimethoxyphenyl)-5-methyl-1H-1,2,3-triazol-4-yl)sulfonyl)phenyl)-3-(2-(2-(2-(4-(((2-(2,6-dioxopiperidin-3-yl)-1,3-dioxoisoindolin-4-yl)amino)methyl)-1H-1,2,3-triazol-1-yl)ethoxy)ethoxy)ethoxy)propenamide [Compound 36] | does not activate | significantly downregulated |  |  | does not activate |  |  |  |  | downregulated | nontoxic | nontoxic | nontoxic
